Data from patent publication US9980943B2, “Methods of treating muscular dystrophy” (BOARD OF REGENTS OF THE NEVADA SYSTEM OF HIGHER EDUCATION, …, priority 2013, dated 2018).

Tests used:
Assay type in all cases: cell-based, mouse
[1] = test system: β-galactosidase in CMV-LacZ C2C12 myoblasts; assay: CMV-LacZ secondary screen in C2C12 myoblasts (β-Gal stabilizing assay); conditions: CMV-LacZ C2C12 myoblasts
Summary of the method: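 β-gal stabilization was measured in C2C12 myoblasts or myotubes stably transfected with a CMV-driven LacZ construct, using the FDG β-gal assay. Compounds were tested in dose-response at 0.5, 1, 5, 10, 20 and 40 μM, with two replicates per point.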

[2] = test system: β-galactosidase in CMV-LacZ C2C12 myotubes; assay: CMV-LacZ secondary screen in C2C12 myotubes (β-Gal stabilizing assay); conditions: C2C12 CMV-LacZ myotubes, fold relative to DMSO
Summary of the method: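 CMV-LacZ C2C12 line (clonal, FDG-screened); myoblasts/myotubes dosed 0.5–40 μM (0.5, 1, 5, 10, 20, 40 μM); n=2 per point; β-gal stabilization read-out.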

[3] = test system: α7 integrin (LacZ reporter in α7+/LacZ myotubes); assay: Myotube α7 integrin FDG assay (Burkin assay in myotubes, 96-well); conditions: myotubes
[4] = test system: α7 integrin (LacZ reporter in α7βgal+/− myoblasts); assay: Myoblast α7+/LacZ integrin FDG assay (Burkin assay in myoblasts, 96-well); conditions: α7+/LacZ myoblasts, 96-well

| SMILES | CMV-LACZ in Myoblasts (β-galactosidase activity relative to DMSO) ([1]; 0.5 uM) | CMV-LACZ in Myoblasts (β-galactosidase activity relative to DMSO) ([1]; 1 uM) | CMV-LACZ in Myoblasts (β-galactosidase activity relative to DMSO) ([1]; 5 uM) | CMV-LACZ in Myoblasts (β-galactosidase activity relative to DMSO) ([1]; 10 uM) | CMV-LACZ in Myoblasts (β-galactosidase activity relative to DMSO) ([1]; 20 uM) | CMV-LACZ in Myoblasts (β-galactosidase activity relative to DMSO) ([1]; 40 uM) | CMV-LACZ in Myotubes, signal relative to DMSO ([2]; 0.5 uM) | CMV-LACZ in Myotubes, signal relative to DMSO ([2]; 1 uM) | CMV-LACZ in Myotubes, signal relative to DMSO ([2]; 5 uM) | CMV-LACZ in Myotubes, signal relative to DMSO ([2]; 10 uM) | CMV-LACZ in Myotubes, signal relative to DMSO ([2]; 20 uM) | CMV-LACZ in Myotubes, signal relative to DMSO ([2]; 40 uM) | Burkin Assay in Myotubes, α7 integrin LacZ reporter signal relative to DMSO ([3]; 0.5 uM) | Burkin Assay in Myotubes, α7 integrin LacZ reporter signal relative to DMSO ([3]; 1 uM) | Burkin Assay in Myotubes, α7 integrin LacZ reporter signal relative to DMSO ([3]; 5 uM) | Burkin Assay in Myotubes, α7 integrin LacZ reporter signal relative to DMSO ([3]; 10 uM) | Burkin Assay in Myotubes, α7 integrin LacZ reporter signal relative to DMSO ([3]; 20 uM) | Burkin Assay in Myotubes, α7 integrin LacZ reporter signal relative to DMSO ([3]; 40 uM) | Burkin Assay in Myoblasts, signal relative to DMSO ([4]; 0.5 uM) | Burkin Assay in Myoblasts, signal relative to DMSO ([4]; 1 uM) | further results |
| --- | --- | --- | --- | --- | --- | --- | --- | --- | --- | --- | --- | --- | --- | --- | --- | --- | --- | --- | --- | --- | --- |
| COc1ccc(CN2CCNC(=O)C2CC(=O)NCCc2c[nH]c3ccccc23)c(OC)c1 (stereo not drawn) [MLS000734270-01] | 0.9296 | 0.8379 | 0.9337 | 0.9468 | 1.0122 | 0.9548 | 1.0019 | 1.0038 | 1.1042 | 1.0885 | 1.1158 | 0.9095 | 0.941 | 0.8975 | 1.083 | 0.9081 | 0.8558 | 0.8102 | 1.0135 | 1.048 | Burkin Assay in Myoblasts, signal relative to DMSO ([4]; 5 uM): 1.21; Burkin Assay in Myoblasts, signal relative to DMSO ([4]; 10 uM): 0.955; Burkin Assay in Myoblasts, signal relative to DMSO ([4]; 20 uM): 0.9739; Burkin Assay in Myoblasts, signal relative to DMSO ([4]; 40 uM): 0.9873 |
| CN(CCC1CCCCO1)C(=O)CCc1nnc(CCCCc2ccccc2)o1 (stereo not drawn) [MLS000735021-01] | 0.8683 | 1.1646 | 0.9756 | 0.9907 | 1.2130 | 0.9767 | 1.0105 | 1.0221 | 0.9548 | 0.9616 | 1.0378 | 1.0778 | 1.013 | 1.009 | 0.9137 | 1.006 | 0.8444 | 0.8523 | 0.9402 | 0.9246 | Burkin Assay in Myoblasts, signal relative to DMSO ([4]; 5 uM): 0.9982; Burkin Assay in Myoblasts, signal relative to DMSO ([4]; 10 uM): 0.9765; Burkin Assay in Myoblasts, signal relative to DMSO ([4]; 20 uM): 1.025; Burkin Assay in Myoblasts, signal relative to DMSO ([4]; 40 uM): 0.9941 |
| COc1ccc(N=Nc2ccc(N)nc2N)cc1 [MLS000736846-01] | 1.1009 | 1.0386 | 1.0269 | 1.1101 | 1.3459 | 1.0174 | 0.8438 | 0.9714 | 1.0250 | 1.1737 | 1.1000 | 1.2788 | 1.131 | 1.144 | 1.004 | 0.9396 | 0.8776 | 0.9673 | 1.218 | 1.2858 | Burkin Assay in Myoblasts, signal relative to DMSO ([4]; 5 uM): 1.07; Burkin Assay in Myoblasts, signal relative to DMSO ([4]; 10 uM): 1.012; Burkin Assay in Myoblasts, signal relative to DMSO ([4]; 20 uM): 1.0406; Burkin Assay in Myoblasts, signal relative to DMSO ([4]; 40 uM): 0.9563 |
